Assay results: article PMC11484942, “Rumicidins are a family of mammalian host-defense peptides plugging the 70S ribosome exit tunnel” (Nature Communications, 2024)
Bridge positions count the residues as written; N and C are the ends. Square brackets hold non-standard residues; d marks the D form. Ends that are not written are not given here. Peptide text beside a SMILES is read from it. * marks the point of attachment. X1 = CC[C@H](C)CCCCC(=O)*; Dab = NCC[C@H](N)C(=O)O

Columns and labels:
[1] = test system: E. coli BL21 (DE3) Star cell extract; assay: Cell-free protein synthesis (coupled transcription/translation) of EGFP; assay type: biochemical, Escherichia coli; settings: minimum concentration that provides >90% inhibition of the EGFP synthesis in the CFPS system
Experimental: To investigate the effects of AMPs and antibiotics on the coupled transcription/translation process, the test compounds were added to a cell-free protein synthesis (CFPS) reaction mix with a plasmid encoding enhanced green fluorescent protein (EGFP) variant (F64L, S65T, Q80R, F99S, M153T, and V163A) under control of the T7 promoter. The cell lysate was prepared using the E. coli BL21 Star (DE3) overexpressed T7 RNA polymerase as described previously. The reaction mix consisted of the following components: 1.2 mM ATP, 0.8 mM UTP, 0.8 mM GTP, 0.8 mM CTP, 2 mM of each of 20 proteinogenic amino acids, 1.5 mM spermidine, 1 mM putrescine dihydrochloride, 0.06647 mM calcium folinate, […] tRNA from the E. coli MRE 600 strain, 0.33 mM NAD, 120 mM HEPES-KOH (pH 8.0), 10 mM ammonium glutamate, 175 mM potassium glutamate, 60 mM glucose, 15 mM magnesium glutamate, 2% PEG 8000, 25% E. coli BL21 Star (DE3) cell lysate, 1 ng/ml plasmid DNA. The reaction volume was 50 µL. The peptides were dissolved in PBS with the addition of 0.1% BSA. Erythromycin was used in the positive control reactions. The fluorescence of the sample without inhibitor was set as the 100% value. The reaction proceeded for 2 h in 96-well v-bottom black polystyrene microplates (Eppendorf #0030601904) in a plate shaker (30 °C, 1000 rpm). The fluorescence of the synthesized EGFP was measured with the microplate reader AF2200 (λEx = 488 nm, λEm = 510 nm; Eppendorf). The experimental data were obtained from at least two independent experiments performed in triplicate. Non-linear regression curves were generated using GraphPad Prism v.8.0.1 (GraphPad Software Inc.).

[2] = test system: ribosome on ermCL / RST1 mRNA; assay: Toe-printing (primer-extension inhibition) in PURExpress system; assay type: biochemical; settings: 5 µM
Experimental: Toe-print analysis was performed as previously described[20] on two matrices: ErmCL and RST1. Briefly, the PURExpress system (NEB) was used for transcription and subsequent translation, then a reverse transcription reaction was performed. The ErmCL template was generated by PCR with two partially self-complementary oligonucleotides (Erm-F and Erm-R, Supplementary Table 8). […] oligonucleotide was used for reverse transcription. RST1 template was prepared as previously described[58] using PCR primers (T7fwd and NV1). Concentrations of tested compounds in toe-print were 0.5, 5, or 50 μM. 1% (v/v) DMSO water solution was used as a negative control sample. Two independent experiments were performed using both matrices, and the observed effects were the same.

E. coli BW25113 = assay: MIC broth microdilution; assay type: cell-based, Escherichia coli
Experimental: (§1) The reduction of resazurin to resorufin was recorded.

E. coli ML-35p = assay: Cytoplasmic membrane permeability assay (ONPG); assay type: cell-based, Escherichia coli; settings: 4 h exposure, 10 mM NaPB pH 7.4 + 0.9% NaCl, melittin = 100%, mean of two experiments
Experimental: To examine the ability of the peptides to affect the barrier function of outer and inner membranes of Gram-negative bacteria, we slightly modified the previously described procedure[22] with the use of the E. coli ML-35p strain constitutively expressing cytoplasmic β-galactosidase but lacking lactose permease, and also containing β-lactamase in the periplasmic space. The state of the E. coli ML-35p outer and cytoplasmic membranes was assessed based on their permeability to chromogenic markers nitrocefin (Calbiochem) and o-nitrophenyl-β-D-galactopyranoside (ONPG, AppliChem) which are the β-lactamase and β-galactosidase substrates, respectively. The cells were incubated in the trypticase soy broth (TSB) for 16 h at 37 °C, washed three times with phosphate-buffered saline (PBS, pH 7.4) to remove residual growth media, adjusted to the concentration of 2.5 × 10^8 CFU/mL, and stored on ice until used. Experiments were performed in 10 mM sodium phosphate buffer (NaPB, pH 7.4) with or without the addition of 0.9% NaCl and/or a mixture of divalent cations (0.5 mM CaCl2 and 0.5 mM MgSO4). The final concentration of E. coli ML-35p cells was of 2.5 × 10^7 CFU/mL. The concentrations of ONPG and nitrocefin were of 2.5 mM and 20 µM, respectively. Peptide samples were placed in the wells of a 96-well flat-bottom polystyrene microplate, and optical density of the solution enhanced due to an appearance of the hydrolyzed nitrocefin or ONPG and was measured at 492 and 405 nm, respectively, using a microplate reader AF2200. The final volume in each well was 200 µL. Assays were performed at 37 °C under stirring at 500 rpm. Control experiments were performed under the same conditions without adding a peptide. Two independent experiments were performed, and the curve pattern was the same.

E. coli 1057 WT = assay: microbe, parasite or virus in culture; assay type: cell-based, Escherichia coli; settings: MHB + 0.9% NaCl
Experimental: (§3) Minimum inhibitory concentrations (MIC) were determined by broth microdilution assay based on Clinical and Laboratory Standards Institute (CLSI) guidelines using BSA in the growth medium to minimize AMP nonspecific adsorption[49]. Bacterial test cultures were grown in the Mueller-Hinton broth (MHB, Sigma) at 37 °C to mid-log phase and then diluted with the 2× MH medium supplemented with 1.8% NaCl (or without salt) so that to reach a final cell concentration of 10^6 CFU/mL. 50 µL of the obtained bacterial suspension were added to aliquots of 50 µL of the peptide solutions serially diluted with sterilized 0.1% bovine serum albumin (BSA) in 96-well flat-bottom polystyrene microplates (Eppendorf #0030730011). […] To verify MIC values, the respiratory activity of the bacteria was determined. Briefly, 5 µL of 0.5 mg/mL resazurin (Sigma) was added to the wells after 24 h (or after 48 h for M. smegmatis) of incubation, and the plate was incubated for additional 3 h. In some cases, MICs were determined in the Lysogeny Broth (LB) or Middlebrook 7H9 medium. The reduction of resazurin to resorufin was recorded. […] The results were expressed as the median values determined based on at least three independent experiments performed in triplicate.

[3] = test system: E. coli 1057 R2 (rpoS^Q3stop, macB^N470D); settings: MHB + 0.9% NaCl
Experimental: Minimum inhibitory concentrations (MIC) were determined by broth microdilution assay based on Clinical and Laboratory Standards Institute (CLSI) guidelines using BSA in the growth medium to minimize AMP nonspecific adsorption. Bacterial test cultures were grown in the Mueller-Hinton broth (MHB, Sigma) at 37 °C to mid-log phase and then diluted with the 2× MH medium supplemented with 1.8% NaCl (or without salt) so that to reach a final cell concentration of 10^6 CFU/mL. 50 µL of the obtained bacterial suspension were added to aliquots of 50 µL of the peptide solutions serially diluted with sterilized 0.1% bovine serum albumin (BSA) in 96-well flat-bottom polystyrene microplates (Eppendorf #0030730011). […] To verify MIC values, the respiratory activity of the bacteria was determined. Briefly, 5 µL of 0.5 mg/mL resazurin (Sigma) was added to the wells after 24 h (or after 48 h for M. smegmatis) of incubation, and the plate was incubated for additional 3 h. In some cases, MICs were determined in the Lysogeny Broth (LB) or Middlebrook 7H9 medium. The reduction of resazurin to resorufin was recorded. […] The results were expressed as the median values determined based on at least three independent experiments performed in triplicate.
(§2) Resistance induction experiments were performed using the previously described method. This approach allows for monitoring MIC values after each transfer. Briefly, on the first day, the overnight culture of the wild-type bacteria was diluted with the 2× MHB supplemented with 1.8% NaCl (or without salt) to reach a final cell concentration of 10^6 CFU/mL. 50 µL of the obtained bacterial suspension were added to aliquots of 50 µL of the peptide solutions serially diluted with the sterilized 0.1% BSA in 96-well flat-bottom polystyrene microplates. After incubation for 20 ± 2 h at 37 °C and 950 rpm, MICs were determined as described above. For each subsequent daily transfer, 2–4 μL of the inoculum taken from the first well containing a sub-inhibitory drug concentration was diluted with 2 mL of the fresh 2× MHB supplemented with 1.8% NaCl (or without salt). […] Multiple repeated passages in the presence of antimicrobial agents were performed for each bacterial strain during the experiment. Bacteria that grew at the highest concentrations of AMPs on the final day were passaged further 3 times on drug-free agar plates before determining the final MIC value.

E. coli 1057 = assay: Serial passage resistance induction; assay type: cell-based, Escherichia coli; settings: serial passages, both media (MHB ±0.9%NaCl)
Experimental: as §2, with “Briefly, on the first day, the overnight culture of the wild-type bacteria was diluted with the 2× MHB supplemented with 1.8% NaCl (or without salt) to reach a final cell concentration of 10^6 CFU/mL. 50 µL of the obtained bacterial suspension were added to aliquots of 50 µL of the peptide solutions serially diluted with the sterilized 0.1% BSA in 96-well flat-bottom polystyrene microplates.” left out

mycobacteria = settings: cited from earlier work
Description: To estimate the therapeutic potential of rumicidins as candidate compounds for combating bacterial infections, we assessed their antimicrobial activity against a wide panel of strains. As expected, antibacterial activities of rumicidins, like those of known PrAMPs, decreased in most cases in the presence of salt, which might inhibit the adsorption of the peptides to the bacterial surface. Besides, their activities against Gram-negative bacteria deficient in SbmA protein (Pseudomonas aeruginosa and Proteus mirabilis) were also less pronounced. Amon ...

S. aureus ATCC 29213 = assay type: cell-based, Staphylococcus aureus; settings: ATCC 29213, 24 h
Experimental: as §1

[4] = test system: Mycobacterium smegmatis mc(2)155; assay type: cell-based; settings: Mycobacterium mc(2)155, 24 h
Experimental: as §1

panel of tested strains = settings: over all tested strains of Fig. 6a
Experimental: as §3

In the case of KPRPPHRPRPRPRPWFPPRFP [Rum-1[9-29]], the Protein synthesis inhibition [1] is reported as 4 µM, the toe-print result [2] is reported as “strong AUG toe-print signal comparable to that of the wild-type peptide” and the “Minimum inhibitory concentration MHB + 0.9% NaCl” value (E. coli BW25113; Mueller-Hinton broth + 0.9% NaCl, 24 h 37 °C, median of ≥3 experiments) is reported as 32 µM. For the same compound, the “Minimum inhibitory concentration MHB” value (E. coli BW25113; Mueller-Hinton broth without salt, 24 h 37 °C, median of ≥3 experiments) was 8 µM, the “fold change of MIC vs wild-type rumicidin-1” value (E. coli BW25113; N-terminal shortening) was ≥ 4 fold and the “permeabilized cells (ONPG hydrolysis, % of melittin)” value (E. coli ML-35p; 4 µM) was 0.080%. For the same compound, the “permeabilized cells (ONPG hydrolysis, % of melittin)” value (E. coli ML-35p; 16 µM) was 1.213% and the “permeabilized cells (ONPG hydrolysis, % of melittin)” value (E. coli ML-35p; 64 µM) was 3.493%.
In the case of `CC[C@H](C)CCCCC(=O)N[C@@H](CCN)C(=O)N[C@H](C(=O)N[C@@H](CCN)C(=O)N[C@H]1CCNC(=O)[C@H]([C@@H](C)O)NC(=O)[C@H](CCN)NC(=O)[C@H](CCN)NC(=O)[C@H](CC(C)C)NC(=O)[C@@H](Cc2ccccc2)NC(=O)[C@H](CCN)NC1=O)[C@@H](C)O` [Polymyxin B] (X1-[Dab]T[Dab][Dab][Dab][dF]L[Dab][Dab]T; lactam 4-C (inferred); N-terminus assumed), the MIC (E. coli 1057 WT) is reported as 0.062 µM, the MIC [3] is reported as 4 µM and the “fold increase in MIC values under selection” value (E. coli 1057) is reported as 128 fold.
For PR-39, the MIC (mycobacteria) is given as ~ 10 µM.
With “RIKIPRPPKPRRPHRPRPGRRRPWFPPRFP [Rumicidin-3]” the MIC [3] was 4 µM, the “MIC S. aureus ATCC 29213” value (S. aureus ATCC 29213) was > 32 µM and the “Minimum inhibitory concentration (MIC)” value [4] was 4 µM. For the same compound, the “median MIC” value (panel of tested strains) was “about 2 µM”.
